According to patent US20250059180A1 (DONG WHA PHARM. CO., LTD., priority 2022, published 2025):

The compounds below were run on Pfeiffer cells, lymphoma cells having EZH2 mutation (A677G) (assay: Proliferation inhibition of cells of hematologic malignancies (CCK-8, 11 days)). Conditions: 11 days culture, read-out: Cell proliferation inhibitory effect (IC50).
Assay type: cell-based
Method: The growth inhibitory activity of 1,3-benzodioxole derivative compounds represented by chemical formula I of the present invention against Pfeiffer cells, which are lymphoma cells having EZH2 mutation (A677G), was evaluated.
Pfeiffer was cultured using RPMI1640 containing 10% fetal bovine serum. The cells were inoculated into wells of a 96-well culture dish at 10,000 cells each, and cultured for 11 days after treating with the test material for each concentration. For 11 days, the test material was replaced every three to four days. After culturing, the cells were treated with a cell counting kit-8 (CCK-8) reagent for each well, absorbance was measured at 450 nm, and IC50 values for cell proliferation were obtained through curve fitting of non-linear regression in the GraphPad program (GraphPad Prism 5.0 software).

Row | SMILES | IC50 [nM]
1 | CSc1cc(C)[nH]c(=O)c1CNC(=O)c1cc(-c2cnc(N3C[C@@H](C)O[C@@H](C)C3)nc2)c2c(c1C)OC(C)([C@H]1CC[C@H](N(C)CC(F)(F)F)CC1)O2 (stereo partly drawn) [Compound 23, 7-(2-((2S,6R)-2,6-dimethylmorpholino)pyrimidin-5-yl)-2,4-dimethyl-2-(trans-4-(methyl(2,2,2-trifluoroethyl)amino)cyclohexyl)-N-((6-methyl-4-(methylthio)-2-oxo-1,2-dihydropyridin-3-yl)methyl)benzo[d][1,3]dioxole-5-carboxamide] | ≤ 10

Same assay, conditions: Homo sapiens, Pfeiffer, 264 h, 11 days culture, read-out: Cell proliferation inhibitory effect (IC50)

Row | SMILES | IC50 [nM]
2 | CSc1cc(C)[nH]c(=O)c1CNC(=O)c1cc(-c2cnc(N3CCC4(CC3)COC4)nc2)c2c(c1C)OC(C)([C@H]1CC[C@H](N(C)C)CC1)O2 (stereo partly drawn) [Compound 15, 7-(2-(2-oxa-7-azaspiro[3.5]nonan-7-yl)pyrimidin-5-yl)-2-(trans-4-(dimethylamino)cyclohexyl)-2,4-dimethyl-N-((6-methyl-4-(methylthio)-2-oxo-1,2-dihydropyridin-3-yl)methyl)benzo[d][1,3]dioxole-5-carboxamide] | ≤ 10
3 | CSc1cc(C)[nH]c(=O)c1CNC(=O)c1cc(-c2ccc(N3CC(C)CC(C)C3)nc2)c2c(c1C)OC(C)([C@H]1CC[C@H](N(C)C)CC1)O2 (stereo partly drawn) [Compound 16, 2-(trans-4-(dimethylamino)cyclohexyl)-7-(6-(3,5-dimethylpiperidin-1-yl)pyridin-3-yl)-2,4-dimethyl-N-((6-methyl-4-(methylthio)-2-oxo-1,2-dihydropyridin-3-yl)methyl)benzo[d][1,3]dioxole-5-carboxamide] | ≤ 10
4 | CSc1cc(C)[nH]c(=O)c1CNC(=O)c1cc(-c2ccc(N3CCSCC3)nc2)c2c(c1C)OC(C)([C@H]1CC[C@H](N(C)C)CC1)O2 (stereo partly drawn) [Compound 17, 2-(trans-4-(dimethylamino)cyclohexyl)-2,4-dimethyl-N-((6-methyl-4-(methylthio)-2-oxo-1,2-dihydropyridin-3-yl)methyl)-7-(6-thiomorpholinopyridin-3-yl)benzo[d][1,3]dioxole-5-carboxamide] | ≤ 10
5 | CSc1cc(C)[nH]c(=O)c1CNC(=O)c1cc(-c2ccoc2)c2c(c1C)OC(C)([C@H]1CC[C@H](N(C)C)CC1)O2 (stereo partly drawn) [Compound 18, 2-(trans-4-(dimethylamino)cyclohexyl)-7-(furan-3-yl)-2,4-dimethyl-N-((6-methyl-4-(methylthio)-2-oxo-1,2-dihydropyridin-3-yl)methyl)benzo[d][1,3]dioxole-5-carboxamide] | ≤ 10
6 | CSc1cc(C)[nH]c(=O)c1CNC(=O)c1cc(-c2ccc(Cl)s2)c2c(c1C)OC(C)([C@H]1CC[C@H](N(C)C)CC1)O2 (stereo partly drawn) [Compound 19, 7-(5-chlorothiophen-2-yl)-2-(trans-4-(dimethylamino)cyclohexyl)-2,4-dimethyl-N-((6-methyl-4-(methylthio)-2-oxo-1,2-dihydropyridin-3-yl)methyl)benzo[d][1,3]dioxole-5-carboxamide] | ≤ 10
7 | CSc1cc(C)[nH]c(=O)c1CNC(=O)c1cc(-c2cnc(N3CCCCC3)nc2)c2c(c1C)OC(C)([C@H]1CC[C@H](N(C)CC(F)(F)F)CC1)O2 (stereo partly drawn) [Compound 21, 2,4-dimethyl-2-(trans-4-(methyl(2,2,2-trifluoroethyl)amino)cyclohexyl)-N-((6-methyl-4-(methylthio)-2-oxo-1,2-dihydropyridin-3-yl)methyl)-7-(2-(piperidin-1-yl)pyrimidin-5-yl)benzo[d][1,3]dioxole-5-carboxamide] | ≤ 10
8 | CSc1cc(C)[nH]c(=O)c1CNC(=O)c1cc(-c2cnc(N(C)C)nc2)c2c(c1C)OC(C)([C@H]1CC[C@H](N(C)CC(F)(F)F)CC1)O2 (stereo partly drawn) [Compound 22, 7-(2-(dimethylamino)pyrimidin-5-yl)-2,4-dimethyl-2-(trans-4-(methyl(2,2,2-trifluoroethyl)amino)cyclohexyl)-N-((6-methyl-4-(methylthio)-2-oxo-1,2-dihydropyridin-3-yl)methyl)benzo[d][1,3]dioxole-5-carboxamide] | ≤ 10
9 | COCCN(C)[C@H]1CC[C@H](C2(C)Oc3c(-c4ccc(N5C[C@@H](C)O[C@@H](C)C5)nc4)cc(C(=O)NCc4c(SC)cc(C)[nH]c4=O)c(C)c3O2)CC1 (stereo partly drawn) [Compound 24, 7-(6-((2S,6R)-2,6-dimethylmorpholino)pyridin-3-yl)-2-(trans-4-((2-methoxyethyl)(methyl)amino)cyclohexyl)-2,4-dimethyl-N-((6-methyl-4-(methylthio)-2-oxo-1,2-dihydropyridin-3-yl)methyl)benzo[d][1,3]dioxole-5-carboxamide] | ≤ 10
10 | COCCN(C)[C@H]1CC[C@H](C2(C)Oc3c(-c4cnc(N5C[C@@H](C)O[C@@H](C)C5)nc4)cc(C(=O)NCc4c(SC)cc(C)[nH]c4=O)c(C)c3O2)CC1 (stereo partly drawn) [Compound 25, 7-(2-((2S,6R)-2,6-dimethylmorpholino)pyrimidin-5-yl)-2-(trans-4-((2-methoxyethyl)(methyl)amino)cyclohexyl)-2,4-dimethyl-N-((6-methyl-4-(methylthio)-2-oxo-1,2-dihydropyridin-3-yl)methyl)benzo[d][1,3]dioxole-5-carboxamide] | ≤ 10
11 | COCCN(C)[C@H]1CC[C@H](C2(C)Oc3c(-c4cnc(N(C)C)nc4)cc(C(=O)NCc4c(SC)cc(C)[nH]c4=O)c(C)c3O2)CC1 (stereo partly drawn) [Compound 26, 7-(2-(dimethylamino)pyrimidin-5-yl)-2-(trans-4-((2-methoxyethyl)(methyl)amino)cyclohexyl)-2,4-dimethyl-N-((6-methyl-4-(methylthio)-2-oxo-1,2-dihydropyridin-3-yl)methyl)benzo[d][1,3]dioxole-5-carboxamide] | ≤ 10
12 | COCCN(C)[C@H]1CC[C@H](C2(C)Oc3c(-c4ccc(N5CCC(F)(F)CC5)nc4)cc(C(=O)NCc4c(SC)cc(C)[nH]c4=O)c(C)c3O2)CC1 (stereo partly drawn) [Compound 27, 7-(6-(4,4-difluoropiperidin-1-yl)pyridin-3-yl)-2-(trans-4-((2-methoxyethyl)(methyl)amino)cyclohexyl)-2,4-dimethyl-N-((6-methyl-4-(methylthio)-2-oxo-1,2-dihydropyridin-3-yl)methyl)benzo[d][1,3]dioxole-5-carboxamide] | ≤ 10
13 | COCCN(C)[C@H]1CC[C@H](C2(C)Oc3c(-c4ccc(OC)nc4)cc(C(=O)NCc4c(SC)cc(C)[nH]c4=O)c(C)c3O2)CC1 (stereo partly drawn) [Compound 28, 2-(trans-4-((2-methoxyethyl)(methyl)amino)cyclohexyl)-7-(6-methoxypyridin-3-yl)-2,4-dimethyl-N-((6-methyl-4-(methylthio)-2-oxo-1,2-dihydropyridin-3-yl)methyl)benzo[d][1,3]dioxole-5-carboxamide] | ≤ 10
14 | CSc1cc(C)[nH]c(=O)c1CNC(=O)c1cc(-c2ccc(N3C[C@@H](C)O[C@@H](C)C3)nc2)c2c(c1C)OC(C)([C@H]1CC[C@H](N(C)C[C@H](C)O)CC1)O2 (stereo partly drawn) [Compound 29, 7-(6-((2S,6R)-2,6-dimethylmorpholino)pyridin-3-yl)-2-(trans-4-(((S)-2-hydroxypropyl)(methyl)amino)cyclohexyl)-2,4-dimethyl-N-((6-methyl-4-(methylthio)-2-oxo-1,2-dihydropyridin-3-yl)methyl)benzo[d][1,3]dioxole-5-carboxamide] | ≤ 10
15 | CCCOCCN(C)[C@H]1CC[C@H](C2(C)Oc3c(-c4ccc(N5C[C@@H](C)O[C@@H](C)C5)nc4)cc(C(=O)NCc4c(SC)cc(C)[nH]c4=O)c(C)c3O2)CC1 (stereo partly drawn) [Compound 30, 7-(6-((2S,6R)-2,6-dimethylmorpholino)pyridin-3-yl)-2,4-dimethyl-2-(trans-4-(methyl(2-propoxyethyl)amino)cyclohexyl)-N-((6-methyl-4-(methylthio)-2-oxo-1,2-dihydropyridin-3-yl)methyl)benzo[d][1,3]dioxole-5-carboxamide] | ≤ 10
16 | COC(CN(C)[C@H]1CC[C@H](C2(C)Oc3c(-c4ccc(N5C[C@@H](C)O[C@@H](C)C5)nc4)cc(C(=O)NCc4c(SC)cc(C)[nH]c4=O)c(C)c3O2)CC1)OC (stereo partly drawn) [Compound 31, 2-(trans-4-((2,2-dimethoxyethyl)(methyl)amino)cyclohexyl)-7-(6-((2S,6R)-2,6-dimethylmorpholino)pyridin-3-yl)-2,4-dimethyl-N-((6-methyl-4-(methylthio)-2-oxo-1,2-dihydropyridin-3-yl)methyl)benzo[d][1,3]dioxole-5-carboxamide] | ≤ 10
17 | CSc1cc(C)[nH]c(=O)c1CNC(=O)c1cc(-c2ccc(N3C[C@@H](C)O[C@@H](C)C3)nc2)c2c(c1C)OC(C)([C@H]1CC[C@H](N(C)CC3OCCO3)CC1)O2 (stereo partly drawn) [Compound 32, 2-(trans-4-(((1,3-dioxolan-2-yl)methyl)(methyl)amino)cyclohexyl)-7-(6-((2S,6R)-2,6-dimethylmorpholino)pyridin-3-yl)-2,4-dimethyl-N-((6-methyl-4-(methylthio)-2-oxo-1,2-dihydropyridin-3-yl)methyl)benzo[d][1,3]dioxole-5-carboxamide] | ≤ 10
18 | CSc1cc(C)[nH]c(=O)c1CNC(=O)c1cc(-c2ccc(N3C[C@@H](C)O[C@@H](C)C3)nc2)c2c(c1C)OC(C)(C1CCN(CC(F)(F)F)CC1)O2 (stereo partly drawn) [Compound 33, 7-(6-((2S,6R)-2,6-dimethylmorpholino)pyridin-3-yl)-2,4-dimethyl-N-((6-methyl-4-(methylthio)-2-oxo-1,2-dihydropyridin-3-yl)methyl)-2-(1-(2,2,2-trifluoroethyl)piperidin-4-yl)benzo[d][1,3]dioxole-5-carboxamide] | ≤ 10
